Results as given in patent US20130261045A1, “GREEN TEA POLYPHENOL ALPHA SECRETASE ENHANCERS AND METHODS OF USE” (UNIVERSITY OF SOUTH FLORIDA, priority 2005, published 2013).

Tested on: Aβ1-40 and Aβ1-42
Test: Aβ1-40/Aβ1-42 ELISA, conditioned media of SweAPP N2a cells (Examples 6-7, with or without siRNA knock-down)
Format: cell-based, murine
Details: various doses of EGCG, 8 h
Description: FIGS. 8A-8H show EGCG-induced ADAM10 activation correlates with APP α-secretase cleavage in vitro. […] Data were represented as % change relative to control (medium from cultured SweAPP N2a cells or primary neuronal cells without any treatment).
FIGS. 10A-10C show ADAM10 is required for EGCG-induced APP α-secretase cleavage. […] In FIG. 10A, cell lysates were subjected to WB for APP CTFs and ADAM10 cleavage analyses. […] In FIG. 10B, cell culture media were subjected to WB for sAPP-α secretion. […] In FIG. 10C, cell culture media were subjected to Aβ ELISA. Data are represented as % change relative to control (medium from cultured SweAPP N2a cells without any treatment). […]
Conditioned media were collected and analyzed at a 1:1 dilution using the method as previously described (Tan et al., 2002) and values were reported as percentage of Aβ1-x secreted relative to control. Quantitation of total Aβ species was performed according to published methods (Marambaud, P. et al., 2005). […] The optical density of each well was immediately determined by a microplate reader at 450 nm. In addition, Aβ1-40, or Aβ1-42 was separately quantified in these samples using the Aβ1-40 Aβ1-42 ELISA kits (IBL-America, Minneapolis, Minn.) in accordance with the manufacturer's instructions. In all cases, Aβ levels were expressed as a percentage of control (conditioned medium from untreated SWeAPP N2a cells). […]

For `O=C(O[C@@H]1Cc2c(O)cc(O)cc2O[C@@H]1c1cc(O)c(O)c(O)c1)c1cc(O)c(O)c(O)c1` [EGCG, (−)-epigallocatechin-3-gallate], the Aβ1-40 concentration was “dose-dependent reductions” and the Aβ1-42 concentration was “dose-dependent reductions”.
